Measured values from patent publication US6960343B2, “Toll/interleukin-1 receptor adapter protein (TIRAP)” (Yale University School of Medicine, priority 2001, dated 2005).

How the values were obtained:
[1] = system: NF-κB; test: NF-κB-dependent luciferase reporter assay in RAW κB macrophage cell line; type: cell-based; details: RAW κB cells
Protocol: (§1) FIG. 5, comprising FIGS. 5A through 5D, is a series of blots depicting inhibition of LPS- but not CpG-induced NF-κB activation, PKR phosphorylation, and JNK phosphorylation by TIRAP. (A) TIRAP peptide, but not a reverse sequence peptide, inhibited LPS-induced NF-κB activation. RAW κB cells pretreated for 1 h with either the TIRAP or control peptide were stimulated with LPS (10 ng/ml) for 5 h. Samples were stimulated in duplicate. (B) Pretreatment of RAW cells with TIRAP peptide blocks LPS-induced IκB-α degradation. RAW cells pretreated with the TIRAP peptide as indicated were either left unstimulated or stimulated with LPS (10 ng/ml) for the indicated time periods. Lysates (30 μg/sample) were resolved by SDS-PAGE followed by immunoblotting with an anti-IκB-α antibody to assess IκB-α degradation. (C) TIRAP peptide inhibited LPS- but not CpG-induced NF-κB activity. RAW κB cells pretreated with the TIRAP peptide as indicated were stimulated with either LPS or CpG and harvested for reporter assay. (D) TIRAP peptide inhibited PKR and JNK phosphorylation induced by LPS but not CpG. RAW cells either untreated or pretreated with 40 μM of the TIRAP peptide were stimulated with either LPS or CpG as indicated. Lysates (30 μg/sample) were analyzed by SDS-PAGE followed by immunoblotting with antibodies that specifically recognize phosphorylated PKR or phosphorylated JNK. […]

[2] = system: JNK; test: JNK phosphorylation in RAW cells, immunoblot; type: cell-based; details: 40 μM peptide
Protocol: (§2) FIG. 5, comprising FIGS. 5A through 5D, is a series of blots depicting inhibition of LPS- but not CpG-induced NF-κB activation, PKR phosphorylation, and JNK phosphorylation by TIRAP. (A) TIRAP peptide, but not a reverse sequence peptide, inhibited LPS-induced NF-κB activation. RAW κB cells pretreated for 1 h with either the TIRAP or control peptide were stimulated with LPS (10 ng/ml) for 5 h. Samples were stimulated in duplicate. (B) Pretreatment of RAW cells with TIRAP peptide blocks LPS-induced IκB-α degradation. RAW cells pretreated with the TIRAP peptide as indicated were either left unstimulated or stimulated with LPS (10 ng/ml) for the indicated time periods. […] Lysates (30 μg/sample) were analyzed by SDS-PAGE followed by immunoblotting with antibodies that specifically recognize phosphorylated PKR or phosphorylated JNK.
(§3) To determine whether a TIRAP mutant peptide inhibits PKR and JNK phosphorylation induced by LPS or CpG, RAW cells either untreated or pretreated with 40 μM of the TIRAP peptide were either left unstimulated or stimulated with either LPS (10 ng/ml) or CpG (10 μM) for the indicated time periods before harvest and lysis. Lysates (30 μg/sample) were analyzed by SDS-PAGE followed by immunoblotting with antibodies that specifically recognize phosphorylated PKR and JNK.

[3] = system: dendritic cells (DCs); test: Dendritic cell maturation, flow cytometry of costimulatory molecules B7.1 and B7.2; type: cell-based, mice; details: peptide 10 μM
Protocol: (§4) (A) Wild-type and MyD88^−/− dendritic cells (DCs) were induced with LPS or CpG and analyzed for expression of the costimulatory molecules B7.1 and […] flow cytometry. (B) Production of the cytokines, IL-12 and IL-6, was measured in cells that were untreated (none) or treated with LPS or CpG in the presence or absence of TIRAP peptide. (C) T cell proliferation was measured in wild-type DCs that were untreated (none), treated with LPS alone (LPS), or treated with LPS in the presence of increasing amounts of TIRAP peptide (LPS+TIRAP peptide). T cell proliferation was measured by incorporation of ^3H-thymidine into cells, expressed as cpm×10^3.
In view of the important role for TIRAP in mediating LPS-responsiveness in macrophages, the role of TIRAP in LPS-induced DC maturation was investigated. TIRAP is likely to be critical in these events because MyD88-deficient DCs retain the ability to upregulate costimulatory molecules in response to LPS stimulation (Kaisho 2001). To determine the effect of TIRAP on the expression of the costimulatory molecules B7.1 and B7.2, flow cytometry was performed on wild type and MyD88-/-DC. DCs were either unstimulated (shaded), stimulated with LPS (10 ng/ml) or CpG (10 μM) (black line), or pretreated with TIRAP peptide (10 μM) prior to stimulation with LPS or CpG (dashed line). […]

[4] = system: IL-6; test: IL-6 production by dendritic cells; type: cell-based, mice; details: DCs
Protocol: as §4
(§5) To determine the effects of the TIRAP peptide on cytokine production, DCs were treated with or without TIRAP peptide prior to stimulation with LPS or CpG (as described above), and the production of IL-12 and IL-6 was measured. Addition of TIRAP peptide inhibited production of IL-12 and IL-6 cytokines in response to stimulation with LPS, but not CpG (FIG. 6B).

[5] = system: IκB-α; test: IκB-α degradation in RAW cells, immunoblot; type: cell-based
Protocol: as §1

[6] = system: 1H3.1 TCR transgenic T cells; test: CD4 T cell proliferation stimulated by DCs, 3H-thymidine incorporation; type: cell-based; details: DCs from wild-type or MyD88-deficient mice, LPS, Eα peptide, 48 h culture
Protocol: as §4
Lastly, the effect of TIRAP peptide on T cell proliferation was evaluated. Stimulation of CD4 T cell proliferation by DCs treated with or without TIRAP peptide prior to stimulation with LPS was performed in the presence of varying concentrations of Eα peptide. DCs were fixed prior to incubation with 1H3.1 TCR transgenic T cells (specific for Eα peptide bound to I-A). Proliferation was measured by ^3H-thymidine incorporation for the last 24 h of a 48 h culture.

[7] = system: PKR; test: PKR phosphorylation in RAW cells, immunoblot; type: cell-based; details: 40 μM peptide
Protocol: as §2, §3

[8] = system: IL-12; test: IL-12 production by dendritic cells; type: cell-based, mice; details: DCs
Protocol: as §4, §5

TIRAP peptide: synthetic peptide corresponding to the P125 region of mTIRAP linked to the C-terminus of a peptide derived from antennapedia (RQIKIWFQNRRMKWKKLQLRDAAPGGAIVS; TIRAP/Antennapedia fusion protein)
inhibition of LPS-induced NF-κB activation ([1]; 1 hour pretreatment, LPS 10 ng/ml 5 hours, TIRAP peptide 50 μM): potently inhibited
inhibition of CpG-induced NF-κB activation ([1]; CpG 10 μM 5 hours): did not inhibit
inhibition of JNK phosphorylation induced by CpG ([2]; CpG): not CpG
inhibition of JNK phosphorylation induced by LPS ([2]; LPS): inhibited
CpG-induced DC maturation ([3]; DCs, CpG 10 μM): no effect
LPS-induced upregulation of B7.1 and B7.2 molecules ([3]; wild-type and MyD88-deficient DCs, LPS 10 ng/ml): abolished
production of IL-6 in response to CpG ([4]; peptide before CpG stimulation): not CpG
production of IL-6 in response to LPS ([4]; peptide before LPS stimulation): inhibited
LPS-induced IκB-α degradation ([5]; 1 hour pretreatment with 40 μM peptide, LPS 10 ng/ml): did not induce IκB-α degradation
inhibition of CpG-induced IκB-α degradation ([5]; CpG): did not inhibit
T cell proliferation induced by peptide-treated DCs [6]: unable to induce T cell proliferation
inhibition of PKR phosphorylation induced by CpG ([7]; CpG 10 μM): not CpG
inhibition of PKR phosphorylation induced by LPS ([7]; LPS 10 ng/ml): inhibited
production of IL-12 in response to CpG ([8]; peptide before CpG stimulation): not CpG
production of IL-12 in response to LPS ([8]; peptide before LPS stimulation): inhibited
